Results taken from ChEMBL document CHEMBL4334516, “Kinase Chemodiversity from the Arctic: The Breitfussins” (J Med Chem, 2019).

Columns and labels:
[1] = molecular target: AMP-activated protein kinase, AMPK (Homo sapiens) (UniProt P54646+O43741+P54619+Q9UGJ0+Q9Y478+Q13131+Q9UGI9); experiment: Inhibition of AMPK (unknown origin) assessed as residual enzyme activity at 50 uM by [33P]-ATP filter binding kinase assay relative to control; format: protein-complex assay
[2] = Stability in mouse liver microsomes supplemented with UDP-glucuronic acid assessed as parent compound remaining level at 5 uM incubated for 1 hr by LC-MS analysis; format: ADME, Microsome; settings: read-out: Stability
[3] = test system: MDA-MB-468; experiment: Cytotoxicity in human MDA-MB-468 cells assessed as reduction in cell viability incubated for 72 hrs by SRB assay; settings: MDA-MB-468, 72 h
[4] = Toxicity in zebrafish embryos assessed as induction of scoliosis by measuring unaffected embryos level at 1.4 uM after 72 hrs (reference value: 100%); parameters: species or system Danio rerio; settings: in vivo
[5] = molecular target: Serine/threonine-protein kinase SIK3 (Homo sapiens, UniProt Q9Y2K2); experiment: Binding affinity to wild-type human partial length SIK3 (A90 to L395 residues) expressed in mammalian expression system assessed as residual binding level at 10 uM by active-site directed competition binding assay based Kinomescan method relative to control
[6] = Cytotoxicity in human RD-ES cells assessed as reduction in cell viability incubated for 72 hrs by SRB assay
[7] = Toxicity in zebrafish embryos assessed as induction of tail degeneration by measuring unaffected embryos level at 14 uM after 72 hrs (reference value: 100%); format: tissue-based, Danio rerio; settings: in vivo
[8] = test system: HepG2; experiment: Cytotoxicity in human HepG2 cells assessed as reduction in cell viability incubated for 72 hrs by SRB assay; settings: HepG2, 72 h
[9] = test system: A673; experiment: Cytotoxicity in human A673 cells assessed as reduction in cell viability incubated for 72 hrs by SRB assay; settings: A673, 72 h
[10] = molecular target: Serine/threonine-protein kinase RIO1 (Homo sapiens, UniProt Q9BRS2); experiment: Binding affinity to wild-type human full length RIOK1 (M1 to K568 residues) expressed in bacterial expression system by active-site directed competition binding assay based Kinomescan method
[11] = Solubility in assay media (PTU-E3 water); format: physicochemical; settings: buffer
[12] = molecular target: Mitogen-activated protein kinase 15 (Homo sapiens) (UniProt Q8TD08); experiment: Inhibition of ERK8 (unknown origin) assessed as residual enzyme activity at 50 uM by [33P]-ATP filter binding kinase assay relative to control
[13] = molecular target: T1, Mitogen-activated protein kinase kinase kinase 7 (Homo sapiens) (UniProt O43318); experiment: Binding affinity to wild-type human partial length TAK1 (M1 to Q303 residues) expressed in mammalian expression system assessed as residual binding level at 10 uM by active-site directed competition binding assay based Kinomescan method relative to control
T1 sequence (whole entry): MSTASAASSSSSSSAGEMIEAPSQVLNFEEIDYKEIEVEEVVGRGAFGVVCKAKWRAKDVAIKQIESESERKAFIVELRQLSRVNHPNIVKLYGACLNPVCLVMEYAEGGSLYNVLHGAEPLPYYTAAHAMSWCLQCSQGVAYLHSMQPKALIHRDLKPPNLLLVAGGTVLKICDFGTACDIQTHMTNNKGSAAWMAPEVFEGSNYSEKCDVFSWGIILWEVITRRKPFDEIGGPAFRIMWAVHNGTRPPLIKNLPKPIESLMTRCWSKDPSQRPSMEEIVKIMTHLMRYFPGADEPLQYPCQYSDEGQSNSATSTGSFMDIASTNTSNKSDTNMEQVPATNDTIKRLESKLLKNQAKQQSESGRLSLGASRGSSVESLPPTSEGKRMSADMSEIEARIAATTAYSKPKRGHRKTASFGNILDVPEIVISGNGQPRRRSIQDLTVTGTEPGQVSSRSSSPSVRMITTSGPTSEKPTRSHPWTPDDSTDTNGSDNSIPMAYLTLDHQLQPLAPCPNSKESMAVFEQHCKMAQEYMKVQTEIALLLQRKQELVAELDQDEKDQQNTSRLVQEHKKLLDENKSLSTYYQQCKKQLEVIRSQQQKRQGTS

[14] = Toxicity in zebrafish embryos assessed as induction of general edema by measuring unaffected embryos level at 14 uM after 72 hrs (reference value: 100%); parameters: species or system Danio rerio; settings: in vivo
[15] = test system: BT-20; experiment: Cytotoxicity in human BT20 cells assessed as reduction in cell viability incubated for 72 hrs by SRB assay; settings: BT-20, 72 h
[16] = molecular target: Cyclin-G-associated kinase (Homo sapiens, UniProt O14976); experiment: Binding affinity to wild-type human partial length GAK (G13 to Y338 residues) expressed in bacterial expression system by active-site directed competition binding assay based Kinomescan method
[17] = molecular target: T2, Receptor-interacting serine/threonine-protein kinase 2 (Homo sapiens, UniProt O43353); experiment: Binding affinity to wild-type human partial length RIPK2 (M1 to K310 residues) expressed in bacterial expression system assessed as residual binding level at 10 uM by active-site directed competition binding assay based Kinomescan method relative to control
[18] = molecular target: T2, Receptor-interacting serine/threonine-protein kinase 2; experiment: Inhibition of RIPK2 (unknown origin) assessed as residual enzyme activity at 1 uM by [33P]-ATP filter binding kinase assay relative to control
[19] = molecular target: T3, Mitogen-activated protein kinase kinase kinase 9 (Homo sapiens, UniProt P80192); experiment: Inhibition of MLK1 (unknown origin) assessed as residual enzyme activity at 1 uM by [33P]-ATP filter binding kinase assay relative to control
[20] = molecular target: T1, Mitogen-activated protein kinase kinase kinase 7 (Homo sapiens); experiment: Inhibition of TAK1 (unknown origin) assessed as residual enzyme activity at 50 uM by [33P]-ATP filter binding kinase assay relative to control
[21] = Toxicity in zebrafish embryos assessed as induction of tail degeneration by measuring unaffected embryos level at 1.4 uM after 72 hrs (reference value: 100%); format: tissue-based, Danio rerio; settings: in vivo
[22] = test system: PBMC; experiment: Cytotoxicity in human PBMC assessed as reduction in cell viability incubated for 72 hrs by SRB assay; format: cell-based
[23] = molecular target: Interleukin-1 receptor-associated kinase 3 (Homo sapiens, UniProt Q9Y616); experiment: Binding affinity to wild-type human partial length IRAK3 (V147 to E596 residues) expressed in bacterial expression system by active-site directed competition binding assay based Kinomescan method
[24] = molecular target: Mitogen-activated protein kinase 15 (Homo sapiens) (UniProt Q8TD08); experiment: Binding affinity to wild-type human partial length ERK8 (M1 to P437 residues) expressed in bacterial expression system assessed as residual binding level at 10 uM by active-site directed competition binding assay based Kinomescan method relative to control
[25] = test system: MCF7; experiment: Cytotoxicity in human MCF7 cells assessed as reduction in cell viability incubated for 72 hrs by SRB assay; settings: MCF7, 72 h
[26] = molecular target: Receptor-type tyrosine-protein kinase FLT3 (Homo sapiens, UniProt P36888, N841I); experiment: Binding affinity to human partial length FLT3 N841I mutant (V592 to Y969 residues) expressed in bacterial expression system by active-site directed competition binding assay based Kinomescan method
[27] = molecular target: T3, Mitogen-activated protein kinase kinase kinase 9; experiment: Inhibition of MLK1 (unknown origin) assessed as residual enzyme activity at 5 uM by [33P]-ATP filter binding kinase assay relative to control

T3 sequence (P80192 whole entry, looked up): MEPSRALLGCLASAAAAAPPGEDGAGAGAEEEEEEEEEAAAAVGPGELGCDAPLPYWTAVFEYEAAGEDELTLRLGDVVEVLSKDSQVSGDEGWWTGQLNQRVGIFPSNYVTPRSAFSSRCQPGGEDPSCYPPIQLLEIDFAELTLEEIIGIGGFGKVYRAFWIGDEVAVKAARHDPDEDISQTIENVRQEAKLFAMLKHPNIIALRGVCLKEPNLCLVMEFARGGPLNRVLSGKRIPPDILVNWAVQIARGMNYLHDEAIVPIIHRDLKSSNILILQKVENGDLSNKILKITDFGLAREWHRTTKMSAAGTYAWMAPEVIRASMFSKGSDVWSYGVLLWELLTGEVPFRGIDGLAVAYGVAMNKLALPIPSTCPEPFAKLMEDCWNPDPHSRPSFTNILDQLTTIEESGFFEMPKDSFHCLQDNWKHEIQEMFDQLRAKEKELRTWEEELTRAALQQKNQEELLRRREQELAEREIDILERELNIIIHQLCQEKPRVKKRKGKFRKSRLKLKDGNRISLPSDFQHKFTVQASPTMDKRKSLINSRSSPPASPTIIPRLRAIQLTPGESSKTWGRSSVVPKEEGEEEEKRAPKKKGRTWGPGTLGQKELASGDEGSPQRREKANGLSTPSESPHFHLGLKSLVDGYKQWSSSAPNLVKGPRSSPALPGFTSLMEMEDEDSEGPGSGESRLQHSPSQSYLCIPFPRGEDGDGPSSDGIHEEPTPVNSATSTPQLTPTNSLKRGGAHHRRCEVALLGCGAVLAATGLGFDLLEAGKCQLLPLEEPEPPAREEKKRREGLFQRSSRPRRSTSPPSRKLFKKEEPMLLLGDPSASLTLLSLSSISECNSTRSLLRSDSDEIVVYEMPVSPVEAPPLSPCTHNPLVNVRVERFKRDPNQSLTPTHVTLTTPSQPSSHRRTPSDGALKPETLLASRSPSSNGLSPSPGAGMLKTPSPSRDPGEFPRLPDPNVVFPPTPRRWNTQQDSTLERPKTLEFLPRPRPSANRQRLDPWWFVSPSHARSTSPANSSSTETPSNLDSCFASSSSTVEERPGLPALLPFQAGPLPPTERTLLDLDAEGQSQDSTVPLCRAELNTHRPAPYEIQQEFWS
T2 sequence (O43353 whole entry, the tested form may be a part): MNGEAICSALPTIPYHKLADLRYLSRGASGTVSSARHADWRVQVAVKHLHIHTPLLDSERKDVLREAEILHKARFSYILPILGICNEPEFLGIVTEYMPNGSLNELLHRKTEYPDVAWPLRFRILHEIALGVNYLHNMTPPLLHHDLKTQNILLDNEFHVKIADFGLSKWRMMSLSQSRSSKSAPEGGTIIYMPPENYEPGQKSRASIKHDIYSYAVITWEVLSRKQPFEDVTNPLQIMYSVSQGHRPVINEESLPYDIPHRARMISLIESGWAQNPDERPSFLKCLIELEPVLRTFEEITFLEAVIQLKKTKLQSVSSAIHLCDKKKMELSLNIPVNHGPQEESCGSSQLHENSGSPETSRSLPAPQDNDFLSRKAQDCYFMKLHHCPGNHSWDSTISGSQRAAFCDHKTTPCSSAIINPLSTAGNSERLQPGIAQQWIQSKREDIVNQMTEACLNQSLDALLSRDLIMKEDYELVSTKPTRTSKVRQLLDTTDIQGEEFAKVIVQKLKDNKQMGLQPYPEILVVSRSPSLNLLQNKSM
Chain of Mitogen-activated protein kinase 15 (Homo sapiens) (Q8TD08 whole entry, the tested form may be a part): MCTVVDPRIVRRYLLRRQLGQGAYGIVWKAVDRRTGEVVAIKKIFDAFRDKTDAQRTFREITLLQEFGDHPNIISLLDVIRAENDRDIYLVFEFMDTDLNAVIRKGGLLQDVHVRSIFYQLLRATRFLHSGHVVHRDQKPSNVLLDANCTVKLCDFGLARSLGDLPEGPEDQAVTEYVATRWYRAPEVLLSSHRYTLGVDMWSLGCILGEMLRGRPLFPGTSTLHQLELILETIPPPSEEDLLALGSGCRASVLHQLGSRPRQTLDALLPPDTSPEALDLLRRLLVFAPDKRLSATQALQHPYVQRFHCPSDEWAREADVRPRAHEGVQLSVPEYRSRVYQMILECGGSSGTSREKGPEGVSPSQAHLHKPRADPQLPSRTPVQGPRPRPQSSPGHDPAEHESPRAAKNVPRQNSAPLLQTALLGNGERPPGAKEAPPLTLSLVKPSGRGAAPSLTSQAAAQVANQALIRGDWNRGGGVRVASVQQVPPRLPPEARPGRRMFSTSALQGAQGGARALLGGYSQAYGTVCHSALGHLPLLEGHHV
Chain of Cyclin-G-associated kinase (O14976 whole entry, the tested form may be a part): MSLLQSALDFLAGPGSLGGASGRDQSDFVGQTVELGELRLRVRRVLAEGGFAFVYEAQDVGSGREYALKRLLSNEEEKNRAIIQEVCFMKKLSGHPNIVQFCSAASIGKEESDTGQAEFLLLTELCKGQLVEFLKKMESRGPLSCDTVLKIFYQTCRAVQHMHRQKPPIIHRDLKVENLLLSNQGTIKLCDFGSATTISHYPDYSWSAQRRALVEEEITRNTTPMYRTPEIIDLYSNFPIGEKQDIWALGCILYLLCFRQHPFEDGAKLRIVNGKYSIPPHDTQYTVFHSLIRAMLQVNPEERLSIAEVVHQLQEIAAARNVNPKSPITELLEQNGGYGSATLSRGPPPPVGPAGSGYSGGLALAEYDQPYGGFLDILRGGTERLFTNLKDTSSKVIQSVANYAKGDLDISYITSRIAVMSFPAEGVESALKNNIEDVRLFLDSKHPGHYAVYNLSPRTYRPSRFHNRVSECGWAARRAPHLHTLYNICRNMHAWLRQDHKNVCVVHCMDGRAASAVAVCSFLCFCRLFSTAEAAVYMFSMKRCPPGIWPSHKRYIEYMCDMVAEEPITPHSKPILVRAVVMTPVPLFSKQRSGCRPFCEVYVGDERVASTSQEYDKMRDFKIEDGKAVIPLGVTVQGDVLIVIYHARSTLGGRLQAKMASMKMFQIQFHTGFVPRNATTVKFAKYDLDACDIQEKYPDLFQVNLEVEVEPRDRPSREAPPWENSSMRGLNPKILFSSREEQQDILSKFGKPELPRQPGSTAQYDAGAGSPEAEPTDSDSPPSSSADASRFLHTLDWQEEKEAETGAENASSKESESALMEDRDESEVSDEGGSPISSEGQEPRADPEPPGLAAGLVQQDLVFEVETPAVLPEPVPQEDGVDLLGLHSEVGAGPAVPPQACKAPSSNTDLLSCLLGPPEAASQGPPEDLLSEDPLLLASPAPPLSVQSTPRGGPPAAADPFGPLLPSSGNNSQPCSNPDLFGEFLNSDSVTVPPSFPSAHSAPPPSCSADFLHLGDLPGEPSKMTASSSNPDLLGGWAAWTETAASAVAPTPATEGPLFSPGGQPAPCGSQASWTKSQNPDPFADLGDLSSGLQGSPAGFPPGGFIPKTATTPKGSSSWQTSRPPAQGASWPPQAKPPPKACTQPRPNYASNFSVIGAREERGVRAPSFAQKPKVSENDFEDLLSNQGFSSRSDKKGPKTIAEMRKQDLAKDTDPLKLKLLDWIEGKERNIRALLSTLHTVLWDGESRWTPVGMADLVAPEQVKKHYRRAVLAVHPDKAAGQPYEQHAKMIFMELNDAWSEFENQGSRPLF
Chain of Serine/threonine-protein kinase RIO1 (Q9BRS2 whole entry, the tested form may be a part): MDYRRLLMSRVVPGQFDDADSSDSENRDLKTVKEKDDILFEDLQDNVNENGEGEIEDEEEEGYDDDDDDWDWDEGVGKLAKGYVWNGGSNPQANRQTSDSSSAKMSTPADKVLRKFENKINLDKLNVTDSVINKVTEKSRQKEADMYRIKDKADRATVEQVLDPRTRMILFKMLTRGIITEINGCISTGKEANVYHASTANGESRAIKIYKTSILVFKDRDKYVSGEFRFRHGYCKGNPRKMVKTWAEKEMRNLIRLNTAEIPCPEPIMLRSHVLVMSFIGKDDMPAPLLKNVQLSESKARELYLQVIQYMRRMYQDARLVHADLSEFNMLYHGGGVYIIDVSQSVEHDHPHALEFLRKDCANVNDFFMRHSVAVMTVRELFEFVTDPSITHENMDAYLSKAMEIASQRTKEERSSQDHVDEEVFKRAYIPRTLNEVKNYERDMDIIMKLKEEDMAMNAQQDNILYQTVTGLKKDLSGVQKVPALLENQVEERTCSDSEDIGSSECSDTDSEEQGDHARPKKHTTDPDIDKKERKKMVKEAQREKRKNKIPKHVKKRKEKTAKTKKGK
Chain of Interleukin-1 receptor-associated kinase 3 (Q9Y616 whole entry, the tested form may be a part): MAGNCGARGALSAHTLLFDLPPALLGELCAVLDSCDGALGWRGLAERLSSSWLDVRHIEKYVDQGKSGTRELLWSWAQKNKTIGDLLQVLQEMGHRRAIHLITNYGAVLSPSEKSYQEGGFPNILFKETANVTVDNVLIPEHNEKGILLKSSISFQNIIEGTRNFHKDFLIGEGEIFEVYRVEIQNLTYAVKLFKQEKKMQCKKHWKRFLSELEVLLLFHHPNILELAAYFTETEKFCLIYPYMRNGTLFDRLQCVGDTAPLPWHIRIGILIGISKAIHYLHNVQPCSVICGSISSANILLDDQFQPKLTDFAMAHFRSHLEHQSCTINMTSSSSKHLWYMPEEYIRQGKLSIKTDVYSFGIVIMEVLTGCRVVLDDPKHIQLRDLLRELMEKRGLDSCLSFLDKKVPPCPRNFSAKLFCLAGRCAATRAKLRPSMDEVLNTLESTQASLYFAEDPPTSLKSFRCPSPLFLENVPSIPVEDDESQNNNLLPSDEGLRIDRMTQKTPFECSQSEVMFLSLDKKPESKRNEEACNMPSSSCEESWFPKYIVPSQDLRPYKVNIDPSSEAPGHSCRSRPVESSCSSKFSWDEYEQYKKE

**Q.** Which Activity [1] does the source give for `COc1cc(Br)cc2[nH]cc(-c3oc(-c4ccc[nH]4)nc3I)c12` here?
**A.** 28%

**Q.** Which results are given for `COc1cc2c(-c3cnc(-c4ccc[nH]4)o3)c[nH]c2cc1Br`?
**A.** remaining at 1 h, 5 µM [2]: 100%; IC50 [3]: 340 nM; Activity [4]: 89%; Activity [5]: 94%; IC50 [6]: 2500 nM; Activity [7]: 0%; IC50 [8]: 3000 nM; IC50 [9]: 2200 nM; Kd [10]: 2900 nM; solubility [11]: Insoluble; Activity [12]: 9%; Activity [13]: 70%; Activity [14]: 100%; IC50 [15]: > 30000 nM; Kd [16]: 440 nM; Activity [17]: 57%; Activity [18]: 41%; Activity [19]: 26%; Activity [20]: 7%; Activity [21]: 100%; Activity [22]: Non-Toxic; Kd [23]: 1700 nM; Activity [24]: 67%; IC50 [25]: 770 nM; Kd [26]: 8900 nM

**Q.** For `COc1cc(Br)cc2[nH]cc(-c3cnc(-c4ccc[nH]4)o3)c12`, which Activity [27] is on record?
**A.** 7%
